Common to all, as to experiment: biochemical
Type in all cases: biochemical

The target of assay [1] is T1, 363 human kinases (including Aurora A/B/C) (Homo sapiens, UniProt Q9UEE5).
T1 sequence (Q9UEE5 1-414): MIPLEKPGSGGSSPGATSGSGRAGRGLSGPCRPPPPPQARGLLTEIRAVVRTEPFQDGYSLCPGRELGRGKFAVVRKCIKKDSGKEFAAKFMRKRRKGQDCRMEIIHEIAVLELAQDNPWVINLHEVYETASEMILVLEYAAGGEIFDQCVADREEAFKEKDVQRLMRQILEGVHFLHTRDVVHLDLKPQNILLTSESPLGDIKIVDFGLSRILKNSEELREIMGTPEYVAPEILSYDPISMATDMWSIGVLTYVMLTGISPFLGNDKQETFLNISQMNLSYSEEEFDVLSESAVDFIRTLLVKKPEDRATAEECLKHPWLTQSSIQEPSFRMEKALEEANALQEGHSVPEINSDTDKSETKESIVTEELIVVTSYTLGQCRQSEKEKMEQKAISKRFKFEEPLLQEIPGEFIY
The settings on record: DRAK1/STK17A, [ATP] 30 µM; for remaining activity at 0.5 µM / remaining activity at 0.1 µM: read-out: % Enzyme Activity (relative to DMSO controls); for remaining activity at 0.1 µM: 100 nM.
Excerpt: (§1) However, the Aurora A/B selectivity ratios derived from our in vitro and in vivo data can be compared to prioritize inhibitors.

Assay [2] addresses 363 human kinases (including Aurora A/B/C) (Homo sapiens, UniProt P54764). The settings on record: EPHA4, [ATP] 30 µM; for remaining activity at 0.5 µM / remaining activity at 0.1 µM: read-out: % Enzyme Activity (relative to DMSO controls); for remaining activity at 0.1 µM: 100 nM.
Excerpt: as §1
In assay [3] the target is T2, 363 human kinases (including Aurora A/B/C) (Homo sapiens, UniProt Q92630).
T2 sequence (Q92630 1-601): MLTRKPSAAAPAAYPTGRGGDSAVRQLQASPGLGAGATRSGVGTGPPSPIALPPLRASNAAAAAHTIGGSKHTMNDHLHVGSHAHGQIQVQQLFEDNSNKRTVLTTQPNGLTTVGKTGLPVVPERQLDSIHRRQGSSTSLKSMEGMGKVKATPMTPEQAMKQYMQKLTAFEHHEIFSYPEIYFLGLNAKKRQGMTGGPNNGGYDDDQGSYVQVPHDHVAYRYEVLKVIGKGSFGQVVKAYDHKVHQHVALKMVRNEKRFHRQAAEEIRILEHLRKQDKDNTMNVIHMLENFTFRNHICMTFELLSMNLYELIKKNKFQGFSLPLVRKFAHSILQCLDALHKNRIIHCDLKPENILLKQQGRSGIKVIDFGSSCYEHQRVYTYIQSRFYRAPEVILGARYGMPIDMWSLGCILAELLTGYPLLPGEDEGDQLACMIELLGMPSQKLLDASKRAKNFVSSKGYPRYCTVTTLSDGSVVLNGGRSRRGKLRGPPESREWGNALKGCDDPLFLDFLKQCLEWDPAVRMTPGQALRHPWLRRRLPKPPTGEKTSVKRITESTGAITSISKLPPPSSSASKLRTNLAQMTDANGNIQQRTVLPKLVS
To be noted: DYRK2, [ATP] 5 µM; for remaining activity at 0.5 µM / remaining activity at 0.1 µM: read-out: % Enzyme Activity (relative to DMSO controls); for remaining activity at 0.1 µM: 100 nM.
Excerpt: as §1

For assay [4], the target named is T3, 363 human kinases (including Aurora A/B/C) (Homo sapiens, UniProt O95382).
T3 sequence (O95382 1-1288): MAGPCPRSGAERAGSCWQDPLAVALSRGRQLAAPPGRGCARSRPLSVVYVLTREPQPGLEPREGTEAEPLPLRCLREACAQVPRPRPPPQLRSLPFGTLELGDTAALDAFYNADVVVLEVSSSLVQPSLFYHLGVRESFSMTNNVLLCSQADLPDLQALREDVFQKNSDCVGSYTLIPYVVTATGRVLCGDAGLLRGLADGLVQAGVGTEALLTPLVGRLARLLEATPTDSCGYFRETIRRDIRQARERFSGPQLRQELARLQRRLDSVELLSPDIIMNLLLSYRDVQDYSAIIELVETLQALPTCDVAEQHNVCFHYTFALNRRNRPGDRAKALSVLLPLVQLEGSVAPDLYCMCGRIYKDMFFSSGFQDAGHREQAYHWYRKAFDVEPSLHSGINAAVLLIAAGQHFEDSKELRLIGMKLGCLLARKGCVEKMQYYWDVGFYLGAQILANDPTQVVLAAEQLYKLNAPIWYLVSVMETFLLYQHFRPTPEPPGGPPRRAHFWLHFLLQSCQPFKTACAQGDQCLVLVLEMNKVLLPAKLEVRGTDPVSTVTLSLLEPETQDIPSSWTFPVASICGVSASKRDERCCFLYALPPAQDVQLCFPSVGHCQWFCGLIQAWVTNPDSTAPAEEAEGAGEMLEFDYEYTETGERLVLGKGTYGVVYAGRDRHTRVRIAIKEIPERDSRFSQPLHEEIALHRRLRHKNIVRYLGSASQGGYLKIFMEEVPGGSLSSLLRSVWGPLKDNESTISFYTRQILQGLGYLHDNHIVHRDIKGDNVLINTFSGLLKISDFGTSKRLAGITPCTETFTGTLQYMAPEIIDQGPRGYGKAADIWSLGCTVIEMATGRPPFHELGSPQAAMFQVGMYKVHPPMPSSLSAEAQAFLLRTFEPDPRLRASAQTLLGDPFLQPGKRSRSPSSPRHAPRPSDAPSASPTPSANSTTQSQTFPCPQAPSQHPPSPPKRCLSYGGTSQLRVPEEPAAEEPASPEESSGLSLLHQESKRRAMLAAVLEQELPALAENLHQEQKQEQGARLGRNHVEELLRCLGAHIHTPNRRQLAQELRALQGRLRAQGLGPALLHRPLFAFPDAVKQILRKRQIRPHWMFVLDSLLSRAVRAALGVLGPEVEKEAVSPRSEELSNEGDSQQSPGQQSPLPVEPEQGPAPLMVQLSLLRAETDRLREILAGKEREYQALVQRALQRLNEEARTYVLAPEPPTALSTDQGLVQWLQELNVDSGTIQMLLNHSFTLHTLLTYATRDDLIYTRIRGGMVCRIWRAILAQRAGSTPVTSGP
To be noted: MEKK6; for remaining activity at 0.5 µM / remaining activity at 0.1 µM: read-out: % Enzyme Activity (relative to DMSO controls); for remaining activity at 0.1 µM: 100 nM.
Excerpt: as §1

The target of assay [5] is 363 human kinases (including Aurora A/B/C) (Homo sapiens, UniProt Q9H3Y6). The settings on record: SRMS; for remaining activity at 0.5 µM / remaining activity at 0.1 µM: read-out: % Enzyme Activity (relative to DMSO controls); for remaining activity at 0.1 µM: 100 nM.
363 human kinases (including Aurora A/B/C) (Homo sapiens, UniProt Q9H3Y6), sequence (Q9H3Y6 whole entry): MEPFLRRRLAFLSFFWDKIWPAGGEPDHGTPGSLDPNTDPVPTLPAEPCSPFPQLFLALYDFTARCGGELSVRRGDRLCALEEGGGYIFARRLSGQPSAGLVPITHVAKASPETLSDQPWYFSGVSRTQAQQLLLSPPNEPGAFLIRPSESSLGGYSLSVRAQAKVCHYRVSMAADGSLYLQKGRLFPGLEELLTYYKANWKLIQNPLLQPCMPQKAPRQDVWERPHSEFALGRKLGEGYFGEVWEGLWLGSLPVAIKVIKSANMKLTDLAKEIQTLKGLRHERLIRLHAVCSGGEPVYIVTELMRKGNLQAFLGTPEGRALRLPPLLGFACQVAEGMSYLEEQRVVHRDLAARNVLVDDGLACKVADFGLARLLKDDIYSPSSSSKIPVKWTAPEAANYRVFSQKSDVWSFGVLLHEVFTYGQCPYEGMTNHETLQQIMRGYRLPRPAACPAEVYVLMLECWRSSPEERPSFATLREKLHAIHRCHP
Excerpt: as §1
The target of assay [6] is 363 human kinases (including Aurora A/B/C) (Homo sapiens, UniProt P51957). The settings on record: NEK4; for remaining activity at 0.5 µM / remaining activity at 0.1 µM: read-out: % Enzyme Activity (relative to DMSO controls); for remaining activity at 0.1 µM: 100 nM.
363 human kinases (including Aurora A/B/C) (Homo sapiens, UniProt P51957), sequence (P51957 whole entry): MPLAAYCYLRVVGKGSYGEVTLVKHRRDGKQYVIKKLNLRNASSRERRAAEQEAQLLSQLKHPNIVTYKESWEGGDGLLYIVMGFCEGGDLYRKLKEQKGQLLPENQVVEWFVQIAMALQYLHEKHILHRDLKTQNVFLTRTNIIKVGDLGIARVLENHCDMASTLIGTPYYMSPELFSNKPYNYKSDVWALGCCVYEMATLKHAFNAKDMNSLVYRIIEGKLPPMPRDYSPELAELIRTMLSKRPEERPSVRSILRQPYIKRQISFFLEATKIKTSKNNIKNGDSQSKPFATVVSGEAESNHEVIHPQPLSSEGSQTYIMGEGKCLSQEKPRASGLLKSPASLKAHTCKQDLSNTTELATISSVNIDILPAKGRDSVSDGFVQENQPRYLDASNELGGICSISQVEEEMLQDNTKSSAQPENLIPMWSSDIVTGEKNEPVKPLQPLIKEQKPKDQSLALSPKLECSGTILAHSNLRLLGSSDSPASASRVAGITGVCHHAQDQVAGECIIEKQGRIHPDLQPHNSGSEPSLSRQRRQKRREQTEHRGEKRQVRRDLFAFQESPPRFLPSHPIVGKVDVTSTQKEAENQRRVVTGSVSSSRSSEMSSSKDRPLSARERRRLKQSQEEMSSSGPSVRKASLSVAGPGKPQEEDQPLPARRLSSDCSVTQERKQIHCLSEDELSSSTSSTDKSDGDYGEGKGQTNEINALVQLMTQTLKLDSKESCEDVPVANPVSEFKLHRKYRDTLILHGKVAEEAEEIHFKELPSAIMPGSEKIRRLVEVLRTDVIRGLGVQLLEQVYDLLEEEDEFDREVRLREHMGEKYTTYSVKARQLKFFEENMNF
Excerpt: as §1
Assay [7] deals with 363 human kinases (including Aurora A/B/C) (Homo sapiens, UniProt P35916). The settings on record: for remaining activity at 0.5 µM / remaining activity at 0.1 µM: read-out: % Enzyme Activity (relative to DMSO controls).
363 human kinases (including Aurora A/B/C) (Homo sapiens, UniProt P35916), sequence (P35916 25-1363): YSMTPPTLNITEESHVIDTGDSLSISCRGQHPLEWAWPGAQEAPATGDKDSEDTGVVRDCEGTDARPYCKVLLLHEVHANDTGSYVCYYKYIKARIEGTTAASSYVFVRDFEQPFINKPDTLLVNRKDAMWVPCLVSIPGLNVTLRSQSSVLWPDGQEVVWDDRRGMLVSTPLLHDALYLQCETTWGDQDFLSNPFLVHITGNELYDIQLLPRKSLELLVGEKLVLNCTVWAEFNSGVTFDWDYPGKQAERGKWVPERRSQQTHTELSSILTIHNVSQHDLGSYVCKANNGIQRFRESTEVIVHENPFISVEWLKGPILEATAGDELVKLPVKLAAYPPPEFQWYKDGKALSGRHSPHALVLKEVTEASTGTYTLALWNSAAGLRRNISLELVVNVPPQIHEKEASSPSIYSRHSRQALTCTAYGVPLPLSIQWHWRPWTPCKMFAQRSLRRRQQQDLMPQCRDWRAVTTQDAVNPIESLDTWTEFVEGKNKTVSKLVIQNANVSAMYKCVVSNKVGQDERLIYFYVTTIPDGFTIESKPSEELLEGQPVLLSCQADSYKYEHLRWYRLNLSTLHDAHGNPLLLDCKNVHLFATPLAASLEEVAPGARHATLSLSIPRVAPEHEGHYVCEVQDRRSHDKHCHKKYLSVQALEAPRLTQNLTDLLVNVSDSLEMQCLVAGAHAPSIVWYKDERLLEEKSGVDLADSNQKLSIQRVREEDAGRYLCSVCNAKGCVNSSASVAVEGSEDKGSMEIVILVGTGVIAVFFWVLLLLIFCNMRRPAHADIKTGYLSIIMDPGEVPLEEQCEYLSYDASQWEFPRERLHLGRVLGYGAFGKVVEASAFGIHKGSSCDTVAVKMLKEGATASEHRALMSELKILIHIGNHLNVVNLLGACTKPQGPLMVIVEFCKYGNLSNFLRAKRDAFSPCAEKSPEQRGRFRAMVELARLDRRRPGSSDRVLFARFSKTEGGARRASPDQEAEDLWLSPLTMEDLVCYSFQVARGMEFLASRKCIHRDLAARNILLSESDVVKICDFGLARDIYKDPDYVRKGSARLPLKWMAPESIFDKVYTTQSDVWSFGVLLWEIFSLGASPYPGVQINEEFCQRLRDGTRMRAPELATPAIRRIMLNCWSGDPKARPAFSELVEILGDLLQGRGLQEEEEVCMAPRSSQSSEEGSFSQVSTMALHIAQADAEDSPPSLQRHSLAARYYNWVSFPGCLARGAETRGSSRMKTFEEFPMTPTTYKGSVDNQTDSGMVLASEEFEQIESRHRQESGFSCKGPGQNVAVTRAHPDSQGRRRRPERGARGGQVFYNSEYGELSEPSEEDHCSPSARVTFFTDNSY
Excerpt: as §1
Where [8] appears, read: FLT4/VEGFR3, [ATP] 5 µM, 500 nM.

Where “and” joins values, the source holds several entries; their conditions need not be identical. Equal entries are not always repeated. Where two headings read alike, the source gives them in different places.

The values below come from PMC4685510, “A Cell Biologist’s Field Guide to Aurora Kinase Inhibitors” (Frontiers in Oncology, 2015).

363 human kinases (including Aurora A/B/C) (Homo sapiens, UniProt P54764), sequence (P54764 20-986): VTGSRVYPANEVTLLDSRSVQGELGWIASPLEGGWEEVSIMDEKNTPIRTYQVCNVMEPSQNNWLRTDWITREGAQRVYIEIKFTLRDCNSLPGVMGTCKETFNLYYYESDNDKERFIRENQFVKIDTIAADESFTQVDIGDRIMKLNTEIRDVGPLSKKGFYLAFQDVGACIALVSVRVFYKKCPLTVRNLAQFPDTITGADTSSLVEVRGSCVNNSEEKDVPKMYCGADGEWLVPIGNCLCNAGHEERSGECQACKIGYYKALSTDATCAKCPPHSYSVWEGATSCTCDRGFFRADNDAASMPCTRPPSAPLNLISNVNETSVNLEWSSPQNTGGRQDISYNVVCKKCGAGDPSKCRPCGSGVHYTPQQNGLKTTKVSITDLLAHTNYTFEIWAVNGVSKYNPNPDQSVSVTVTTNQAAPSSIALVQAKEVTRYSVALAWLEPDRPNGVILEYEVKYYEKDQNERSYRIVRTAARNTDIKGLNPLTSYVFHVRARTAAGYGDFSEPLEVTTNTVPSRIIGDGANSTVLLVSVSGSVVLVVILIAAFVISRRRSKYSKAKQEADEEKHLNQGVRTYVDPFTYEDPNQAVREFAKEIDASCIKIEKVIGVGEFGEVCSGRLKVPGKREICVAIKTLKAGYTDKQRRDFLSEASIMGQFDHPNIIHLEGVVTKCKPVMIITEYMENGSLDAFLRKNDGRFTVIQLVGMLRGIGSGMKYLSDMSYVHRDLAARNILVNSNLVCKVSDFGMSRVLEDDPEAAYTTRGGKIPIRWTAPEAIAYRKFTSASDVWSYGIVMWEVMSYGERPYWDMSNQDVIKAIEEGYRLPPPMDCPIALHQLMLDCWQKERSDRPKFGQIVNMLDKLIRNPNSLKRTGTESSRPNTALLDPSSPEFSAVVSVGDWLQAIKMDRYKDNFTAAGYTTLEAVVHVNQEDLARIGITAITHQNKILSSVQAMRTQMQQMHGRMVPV

`O=C(c1cccc(Cl)c1F)N1CCN(Cc2cccc(Nc3nccs3)n2)CC1` [MK-8745]: the “% Enzyme Activity (relative to DMSO controls)” value in assay [1] (500 nM) was 102.39%; in assay [2] (500 nM), 87.10%; in assay [3] (500 nM) it was 138.31%; in assay [4] (500 nM), 83.68%; in assay [5] (500 nM) it was 96.62%; in assay [6] (500 nM), 103.20%. Besides, the “% Enzyme Activity (relative to DMSO controls)” value in assay [7] (setting [8]) worked out at 87.71%. Moreover, the remaining activity at 0.5 µM came out at 104% in assay [1] (500 nM); 87.2% in assay [2] (500 nM); 147% in assay [3] (500 nM); 87.7% in assay [4] (500 nM); 98.4% in assay [5] (500 nM); 107% in assay [6] (500 nM). Besides, the remaining activity at 0.5 µM in assay [7] (setting [8]) was 88.4%.

On to `CCn1cc(-c2ccnc3[nH]c(-c4cccc(CN(C)C)c4)cc23)c(-c2ccc(NC(=O)N(C)C)cc2)n1` [GSK1070916], for which the remaining activity at 0.1 µM in assay [1] is 109%; in assay [2], 100%; in assay [3], 108%; in assay [4], 94.5%; in assay [5] it was 95%; in assay [6], 111%. Moreover, in assay [7], the remaining activity at 0.1 µM is 60.2% and 59.9%.

In the case of `O=C(O)[C@]1(Cc2cccc(Nc3nccs3)n2)CC[C@@H](Oc2cccc(Cl)c2F)CC1` [MK-5108], the remaining activity at 0.1 µM was 105% in assay [1]; 50.2% in assay [2]; 82% in assay [3]; 99.6% in assay [4]; 95.1% in assay [5]; 96.7% in assay [6]. Further, the remaining activity at 0.1 µM in assay [7] (FLT4/VEGFR3, [ATP] 5 µM, 100 nM) stood at 26.2%. The remaining activity at 0.5 µM in assay [1] (500 nM) is 102%; in assay [2] (500 nM), 21.2%; in assay [3] (500 nM) it was 56.2%; in assay [4] (500 nM) it was 97.4%; in assay [5] (500 nM), 94.8%; in assay [6] (500 nM) it was 113%. Besides, the remaining activity at 0.5 µM in assay [7] (setting [8]) is 6.3%.
